Assay results from patent publication US12221444B2, “5,6,7,7a-tetrahydrocyclopenta[f]pyrido[1,2-h][1,7]naphthyridin-11(4bH)-one compounds and methods of use” (GLAXOSMITHKLINE INTELLECTUAL, priority 2017, dated 2025).

How the values were obtained:
[1] = HepAD38 cells cytotoxicity assay (CellTiter-Glo Luminescent Cell Viability Assay); assay type: cell-based; settings: human, 7 days total treatment, read-out: Cell tox (EC50, ηM)
Method: (§1) Example 36 HepAD38 Cells—HBsAg ELISA and Cytotoxicity Assays
(§2) HepAD38 cells are maintained in collagen-coated flasks in cell culture medium (DMEM/F12 containing 10% fetal bovine serum (FBS), GlutaMax-1, penicillin/streptomycin, non-essential amino acids, Na pyruvate, 250 μg/mL geneticin, and 1 μg/mL doxycycline). Compound solutions are prepared in DMSO and compound are serially diluted for final concentrations of 4000, 1000, 250, 62.5, 15.6, 3.91, 0.977, 0.244, 0.061, and 0.015 ηM. The cells are then trypsinized and the cells are plate at 10,000 cells per well. Incubate plates are incubated at 37° C., 5% CO2 for 4 days. Media is replaced with new media with compound treatment. The plates are then incubated at 37° C., 5% CO2 for an additional 3 days for a total treatment time of 7 days. For antiviral response, HBsAg was measured using the HBsAg ELISA kit (International Immuno-diagnostics) with instructions provided. 100 uL of cell media samples was used for ELISA. The absorbance was read on the Spectramax® 384 plate reader (Molecular Devices) at 450 nm. For cell toxicity, the cells were used for CellTiter-Glo® Luminescent Cell Viability Assay reagent (Promega). The luminescence was read on Envision Multilabel Reader (Perkin Elmer). The data was analyzed compared to the DMSO control. % inhibition=(1−(unknown/high control))*100
(§3) The average % inhibition values from duplicate assay plates are then plotted in GraphPad Prism to determine one IC value: Four-parameter logistic curve with equation Y=Bottom+(Top-Bottom)/(1+10^((Log IC50−X)*HillSlope)) pIC50=[…]

HBs antigens (HBsAg) = assay: HepAD38 cells HBsAg ELISA; assay type: cell-based, Hepatitis B virus; settings: read-out: HepAD38, HBsAg (EC50), 7 days total treatment, HBsAg ELISA of cell media
Method: as §1, §2, §3

COCCCOc1cc2c(nc1O)-c1cc(=O)c(C(=O)O)cn1[C@H](C(C)(C)C)C2 [Example 20, (S)-6-(tert-Butyl)-2-hydroxy-3-(3-methoxypropoxy)-10-oxo-6,10-dihydro-5H-pyrido[1,2-h][1,7]naphthyridine-9-carboxylic acid]
EC50 at 7 days [1]: > 4000 nM
EC50 (HBs antigens (HBsAg)): > 100 nM

COCCCOc1cc2c(nc1Cl)-c1cc(=O)c(C(=O)O)cn1[C@H]1[C@@H]2CCC1(C)C (single isomer, unassigned) [Example 1]
EC50 at 7 days [1]: > 4000 nM
EC50 (HBs antigens (HBsAg)): < 1 nM

COCCCOc1cc2c(nc1CO)-c1cc(=O)c(C(=O)O)cn1[C@H](C(C)(C)C)C2 [Example 24, (S)-6-(tert-Butyl)-2-(hydroxymethyl)-3-(3-methoxypropoxy)-10-oxo-5,10-dihydro-6H-pyrido[1,2-h][1,7]naphthyridine-9-carboxylic acid]
EC50 at 7 days [1]: > 4000 nM
EC50 (HBs antigens (HBsAg)): 1 to 10 nM

CC(C)C1(C)Cc2cc(OCC3CC3)c(Cl)nc2-c2cc(=O)c(C(=O)O)cn21 (single isomer, unassigned; isomer-1) [Example 26, (2-Chloro-3-(cyclopropylmethoxy)-6-isopropyl-6-methyl-10-oxo-5,10-dihydro-6H-pyrido[1,2-h][1,7]naphthyridine-9-carboxylic acid-Isomer-1]
EC50 at 7 days [1]: > 4000 nM
EC50 (HBs antigens (HBsAg)): 1 to 10 nM

COCCCOc1cc2c(nc1Cl)-c1cc(=O)c(C(=O)O)cn1C1C2CCC1(C)C (racemic) [Example 34, 2-Chloro-3-(3-methoxypropoxy)-7,7-dimethyl-11-oxo-4b,5,6,7,7a,11-hexahydrocyclopenta[f]pyrido[1,2-h][1,7]naphthyridine-10-carboxylic acid]
EC50 at 7 days [1]: > 4000 nM
EC50 (HBs antigens (HBsAg)): < 1 nM

COc1nc2c(cc1OCC1CC1)C[C@H](C(C)(C)C)n1cc(C(=O)O)c(=O)cc1-2 [Example 16, (R)-6-(tert-Butyl)-3-(cyclopropylmethoxy)-2-methoxy-10-oxo-6,10-dihydro-5H-pyrido[1,2-h][1,7]naphthyridine-9-carboxylic acid]
EC50 at 7 days [1]: > 4000 nM
EC50 (HBs antigens (HBsAg)): > 100 nM

COCCCOc1cc2c(nc1O)-c1cc(=O)c(C(=O)O)cn1[C@H]1[C@@H]2CCC1(C)C [Example 8, (4bR,7aS)-2-Hydroxy-3-(3-methoxypropoxy)-7,7-dimethyl-11-oxo-4b,5,6,7,7a,11-hexahydrocyclopenta[f]pyrido[1,2-h][1,7]naphthyridine-10-carboxylic acid]
EC50 at 7 days [1]: > 4000 nM
EC50 (HBs antigens (HBsAg)): > 100 nM

CC(C)(C)[C@@H]1Cc2cc(OCC3CC3)c(O)nc2-c2cc(=O)c(C(=O)O)cn21 [Example 18, (S)-6-(tert-Butyl)-3-(cyclopropylmethoxy)-2-hydroxy-10-oxo-6,10-dihydro-5H-pyrido[1,2-h][1,7]naphthyridine-9-carboxylic acid]
EC50 at 7 days [1]: > 4000 nM
EC50 (HBs antigens (HBsAg)): > 100 nM

COCCCOc1cc2c(nc1Cl)-c1cc(=O)c(C(=O)O)cn1[C@@H]1C(C)(C)CCC21OC (stereo partly drawn) [Example 7, (7aR)-2-Chloro-4b-methoxy-3-(3-methoxypropoxy)-7,7-dimethyl-11-oxo-4b,5,6,7,7a,11-hexahydrocyclopenta[f]pyrido[1,2-h][1,7]naphthyridine-10-carboxylic acid]
EC50 at 7 days [1]: > 4000 nM
EC50 (HBs antigens (HBsAg)): 10 to 100 nM

COCCCOc1cc2c(nc1Cl)-c1cc(=O)c(C(=O)O)cn1[C@@H]1[C@H]2CCC1(C)C (single isomer, unassigned) [Example 2]
EC50 at 7 days [1]: > 4000 nM
EC50 (HBs antigens (HBsAg)): 10 to 100 nM

COCCCOc1cc2c(nc1C)-c1cc(=O)c(C(=O)O)cn1[C@H](C(C)(C)C)C2 [Example 13, (S)-6-(tert-Butyl)-3-(3-methoxypropoxy)-2-methyl-10-oxo-6,10-dihydro-5H-pyrido[1,2-h][1,7]naphthyridine-9-carboxylic acid]
EC50 at 7 days [1]: > 4000 nM
EC50 (HBs antigens (HBsAg)): < 1 nM

COCCCOc1cc2c(nc1Cl)-c1cc(=O)c(C(=O)O)c(C)n1[C@H](C(C)(C)C)C2 [Example 23, (S)-6-(tert-Butyl)-2-chloro-3-(3-methoxypropoxy)-8-methyl-10-oxo-6,10-dihydro-5H-pyrido[1,2-h][1,7]naphthyridine-9-carboxylic acid]
EC50 at 7 days [1]: > 4000 nM
EC50 (HBs antigens (HBsAg)): > 100 nM

Cc1nc2c(cc1OCC1CC1)C[C@@H](C(C)(C)C)n1cc(C(=O)O)c(=O)cc1-2 [Example 12, (S)-6-(tert-Butyl)-3-(cyclopropylmethoxy)-2-methyl-10-oxo-6,10-dihydro-5H-pyrido[1,2-h][1,7]naphthyridine-9-carboxylic acid]
EC50 at 7 days [1]: > 4000 nM
EC50 (HBs antigens (HBsAg)): < 1 nM

COCCCOc1cc2c(nc1Cl)-c1cc(=O)c(C(=O)O)cn1C(C(C)(C)CO)C2 (stereo not shown) [Example 10, 2-Chloro-6-(1-hydroxy-2-methylpropan-2-yl)-3-(3-methoxypropoxy)-10-oxo-6,10-dihydro-5H-pyrido[1,2-h][1,7]naphthyridine-9-carboxylic acid]
EC50 at 7 days [1]: > 4000 nM
EC50 (HBs antigens (HBsAg)): 1 to 10 nM

COCCCOc1cc2c(nc1Cl)-c1cc(=O)c(C(=O)O)cn1[C@H](C(C)(C)C)C2 [Example 11, (S)-6-(tert-Butyl)-2-chloro-3-(3-methoxypropoxy)-10-oxo-6,10-dihydro-5H-pyrido[1,2-h][1,7]naphthyridine-9-carboxylic acid]
EC50 at 7 days [1]: > 4000 nM
EC50 (HBs antigens (HBsAg)): < 1 nM

CC(C)(C)[C@@H]1Cc2cc(OCC3CC3)c(C3CC3)nc2-c2cc(=O)c(C(=O)O)cn21 [Example 14, (S)-6-(tert-Butyl)-2-cyclopropyl-3-(cyclopropylmethoxy)-10-oxo-6,10-dihydro-5H-pyrido[1,2-h][1,7]naphthyridine-9-carboxylic acid]
EC50 at 7 days [1]: > 4000 nM
EC50 (HBs antigens (HBsAg)): < 1 nM

COCCCOc1cc2c(nc1C1CC1)-c1cc(=O)c(C(=O)O)cn1[C@H]1[C@@H]2CCC1(C)C [Example 3, (4bR,7aS)-2-Cyclopropyl-3-(3-methoxypropoxy)-7,7-dimethyl-11-oxo-4b,5,6,7,7a,11-hexahydrocyclopenta[f]pyrido[1,2-h][1,7]naphthyridine-10-carboxylic acid]
EC50 at 7 days [1]: > 4000 nM
EC50 (HBs antigens (HBsAg)): < 1 nM

COCCCOc1cc2c(nc1C1CC1)-c1cc(=O)c(C(=O)O)cn1[C@@H]1C(C)(C)CCC21O (single isomer, unassigned) [Example 5]
EC50 at 7 days [1]: > 4000 nM
EC50 (HBs antigens (HBsAg)): 1 to 10 nM

CC1(C)CC[C@@H]2c3cc(O)c(Cl)nc3-c3cc(=O)c(C(=O)O)cn3[C@@H]21 [Example 9, (4bR,7aS)-2-Chloro-3-hydroxy-7,7-dimethyl-11-oxo-4b,5,6,7,7a,11-hexahydrocyclopenta[f]pyrido[1,2-h][1,7]naphthyridine-10-carboxylic acid]
EC50 at 7 days [1]: > 4000 nM
EC50 (HBs antigens (HBsAg)): > 100 nM

O=C(O)c1cn2c(cc1=O)-c1nc(Cl)c(OCC3CC3)cc1CC21CCC1 [Example 31, 2′-Chloro-3′-(cyclopropylmethoxy)-10′-oxo-5′,10′-dihydrospiro[cyclobutane-1,6′-pyrido[1,2-h][1,7]naphthyridine]-9′-carboxylic acid]
EC50 at 7 days [1]: > 4000 nM
EC50 (HBs antigens (HBsAg)): 1 to 10 nM

COc1nc2c(cc1OCC1CC1)C[C@@H](C(C)(C)C)n1cc(C(=O)O)c(=O)cc1-2 [Example 17, (S)-6-(tert-Butyl)-3-(cyclopropylmethoxy)-2-methoxy-10-oxo-6,10-dihydro-5H-pyrido[1,2-h][1,7]naphthyridine-9-carboxylic acid]
EC50 at 7 days [1]: > 4000 nM
EC50 (HBs antigens (HBsAg)): < 1 nM

COc1cc2c(nc1OC)-c1cc(=O)c(C(=O)O)cn1C1(CCC1)C2 [Example 32, 2′,3′-Dimethoxy-10′-oxo-5′,10′-dihydrospiro[cyclobutane-1,6′-pyrido[1,2-h][1,7]naphthyridine]-9′-carboxylic acid]
EC50 at 7 days [1]: > 4000 nM
EC50 (HBs antigens (HBsAg)): 10 to 100 nM

COCCCOc1cc2c(nc1C1CC1)-c1c(O)c(=O)c(C(=O)O)cn1[C@H](C(C)(C)C)C2 [Example 25, (S)-6-(tert-Butyl)-2-cyclopropyl-11-hydroxy-3-(3-methoxypropoxy)-10-oxo-5,10-dihydro-6H-pyrido[1,2-h][1,7]naphthyridine-9-carboxylic acid]
EC50 at 7 days [1]: > 4000 nM
EC50 (HBs antigens (HBsAg)): < 1 nM

C=C(C)c1nc2c(cc1OCCCOC)C[C@@H](C(C)(C)C)n1cc(C(=O)O)c(=O)cc1-2 [Example 21, (S)-6-(tert-Butyl)-3-(3-methoxypropoxy)-10-oxo-2-(prop-1-en-2-yl)-6,10-dihydro-5H-pyrido[1,2-h][1,7]naphthyridine-9-carboxylic acid]
EC50 at 7 days [1]: > 4000 nM
EC50 (HBs antigens (HBsAg)): < 1 nM

COCCCOc1cc2c(nc1C1CC1)-c1cc(=O)c(C(=O)O)cn1[C@H](C(C)(C)C)C2 [Example 15, (S)-6-(tert-Butyl)-2-cyclopropyl-3-(3-methoxypropoxy)-10-oxo-6,10-dihydro-5H-pyrido[1,2-h][1,7]naphthyridine-9-carboxylic acid]
EC50 at 7 days [1]: > 4000 nM
EC50 (HBs antigens (HBsAg)): < 1 nM

COCCCOc1cc2c(nc1OC)-c1cc(=O)c(C(=O)O)cn1[C@H](C(C)(C)C)C2 [Example 19, (S)-6-(tert-Butyl)-2-methoxy-3-(3-methoxypropoxy)-10-oxo-6,10-dihydro-5H-pyrido[1,2-h][1,7]naphthyridine-9-carboxylic acid]
EC50 at 7 days [1]: > 4000 nM
EC50 (HBs antigens (HBsAg)): < 1 nM
